From article PMC10889159, “Synthesis and Antitumor Activity Evaluation of Novel Echinatin Derivatives with a 1,3,4-Oxadiazole Moiety” (International Journal of Molecular Sciences, 2024)

Experiments:
[1] = tested on: HT-29; test: CCK8 antiproliferative assay, HT-29; assay type: cell-based; conditions: Homo sapiens, CCK8, 48 h, mean ± SD, n = 3
Protocol: (§1) For all biological assays, all of the synthesized compounds were dissolved in DMSO. The cytotoxicity of all of the target compounds against the HCT116, K562, KU812, and HT-29 cells was determined by an CCK8 assay in vitro using adriamycin and echinatin as the controls. About 3000 cells per well were seeded in a 96-well plate and incubated for 24 h. Then, the cells were stimulated with different concentrations of test compounds for 48 h. The CCK8 solution (100 µL 0.5 mg/mL^−1) was added to each well, and the cells were incubated for another 4 h. Then, the absorbance of the samples was measured at 450 nm. The IC50 values were calculated according to the Logit method after obtaining the inhibitory rate. All experiments were repeated three times.

[2] = tested on: HCT116; test: CCK8 antiproliferative assay, HCT116; assay type: cell-based; conditions: Homo sapiens, HCT-116; CCK8, 48 h, mean ± SD, n = 3
Protocol: as §1

[3] = tested on: KU812; test: CCK8 antiproliferative assay, KU812; assay type: cell-based; conditions: Homo sapiens, CCK8, 48 h, mean ± SD, n = 3
Protocol: as §1

[4] = tested on: K562; test: CCK8 antiproliferative assay, K562; assay type: cell-based; conditions: Homo sapiens, CCK8, 48 h, mean ± SD, n = 3
Protocol: as §1

[5] = molecular target: c-KIT (Homo sapiens, UniProt P10721); test: Biochemical c-KIT activity assay (ADP-Glo); conditions: 20 μM ATP, read-out: IC50 for c-KIT inhibition
c-KIT, sequence (P10721 26-976): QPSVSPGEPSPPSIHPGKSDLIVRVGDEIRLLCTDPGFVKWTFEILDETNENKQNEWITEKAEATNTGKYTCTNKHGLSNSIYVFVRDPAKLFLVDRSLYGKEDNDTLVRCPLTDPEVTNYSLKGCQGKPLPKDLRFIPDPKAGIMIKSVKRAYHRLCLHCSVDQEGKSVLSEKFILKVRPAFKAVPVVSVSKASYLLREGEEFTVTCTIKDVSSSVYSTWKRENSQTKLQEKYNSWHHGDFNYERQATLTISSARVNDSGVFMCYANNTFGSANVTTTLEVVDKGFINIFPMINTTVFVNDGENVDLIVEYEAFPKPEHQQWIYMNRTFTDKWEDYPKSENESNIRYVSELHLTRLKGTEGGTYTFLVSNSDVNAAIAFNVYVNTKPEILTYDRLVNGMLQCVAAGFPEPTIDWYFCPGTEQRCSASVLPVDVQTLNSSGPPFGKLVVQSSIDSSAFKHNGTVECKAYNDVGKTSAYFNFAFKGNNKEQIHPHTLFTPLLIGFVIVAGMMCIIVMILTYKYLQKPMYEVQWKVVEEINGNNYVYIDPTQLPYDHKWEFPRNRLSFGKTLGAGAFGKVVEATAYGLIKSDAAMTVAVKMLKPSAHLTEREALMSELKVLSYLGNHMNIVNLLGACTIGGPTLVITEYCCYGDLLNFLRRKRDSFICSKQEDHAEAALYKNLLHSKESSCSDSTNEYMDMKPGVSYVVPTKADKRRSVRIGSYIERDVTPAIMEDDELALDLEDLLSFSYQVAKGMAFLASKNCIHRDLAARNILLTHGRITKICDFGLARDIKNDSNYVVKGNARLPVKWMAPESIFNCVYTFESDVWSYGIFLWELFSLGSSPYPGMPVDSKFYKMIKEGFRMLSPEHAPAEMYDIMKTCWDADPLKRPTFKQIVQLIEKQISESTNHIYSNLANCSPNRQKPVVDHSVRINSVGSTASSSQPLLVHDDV
Protocol: The enzymatic activities of c-KIT were determined by in vitro kinase assays using the ADP-Glo reagent (Promega, Madison, WI, USA) according to the manufacturer’s instructions. Briefly, 250 ng of c-KIT protein was incubated with compounds in 10 μL of reaction buffer (40 mM Tris−HCl, pH 7.4, 2 mM MnCl2, 2 mM DTT, 20 mM MgCl2, 0.1 mg/mL bovine serum albumin, 1 mM Na3VO4) containing 20 μΜ ATP and 40 μM poly (Glu4-Tyr1) as substrates at 30 °C for 150 min. The ADP-Glo reagent was then added, and the mixture was incubated at 25 °C for 40 min. The kinase detection reagent was added for another 30 min at 25 °C. The converted ADP was determined by luminescence measurement using a Wallac Vector 1420 multilabel counter (PerkinElmer).

| Compound | IC50 [1] | IC50 [2] | IC50 [4] | melting point | IC50 [5] | IC50 [3] |
| --- | --- | --- | --- | --- | --- | --- |
| COc1cc(O)ccc1/C=C/C(=O)c1ccc(OCc2nnc(Nc3cccc(Cl)c3)o2)cc1 [Compound T14, (E)-1-{4-{{5-[(3-Chlorophenyl)amino]-1,3,4-oxadiazol-2-yl}methoxy}phenyl}-3-(4-hydroxy-2-methoxyphen-yl)propenone] | 13.2 ± 0.53 µM | 9.83 ± 1.98 µM | > 30 µM | 225 to 225.9 °C |  | > 30 µM |
| COc1cc(O)ccc1/C=C/C(=O)c1ccc(OCc2nnc(Nc3c(F)cccc3F)o2)cc1 [Compound T17, (E)-1-{4-{{5-[(2,6-Difluorophenyl)amino]-1,3,4-oxadiazol-2-yl}methoxy}phenyl}-3-(4-hydroxy-2-methoxy-phenyl)propenone] | > 30 µM | > 30 µM | > 30 µM | 193 to 194.3 °C |  | > 30 µM |
| COc1cc(O)ccc1/C=C/C(=O)c1ccc(OCc2nnc(Nc3ccc(OC(F)(F)F)cc3)o2)cc1 [Compound T5] | 3.64 ± 0.21 µM | 3.94 ± 0.33 µM | > 30 µM | 227.6 to 228.4 °C |  | 12.45 ± 0.02 µM |
| COc1ccc(Nc2nnc(COc3ccc(C(=O)/C=C/c4ccc(O)cc4OC)cc3)o2)cc1 [Compound T2, (E)-3-(4-Hydroxy-2-methoxyphenyl)-1-{4-{{5-[(4-methoxyphenyl)amino]-1,3,4-oxadiazol-2-yl}methoxy}phenyl}p-ropenone] | 8.78 ± 0.12 µM | 3.97 ± 0.53 µM | > 30 µM | 212.6 to 213.6 °C |  | 13.3 ± 0.39 µM |
| COc1cc(O)ccc1/C=C/C(=O)c1ccc(OCc2nnc(Nc3ccc(C(C)(C)C)cc3)o2)cc1 [Compound T8] | 4.94 ± 0.25 µM | 6.51 ± 0.19 µM | 19.48 ± 0.12 µM | 197.1 to 198.5 °C | 0.613 µM | 12 ± 1.28 µM |
| COc1cc(O)ccc1/C=C/C(=O)c1ccc(O)cc1 [Echinatin] | 10.4 ± 0.87 µM | 4.54 ± 0.76 µM | > 30 µM |  |  | 13.8 ± 0.33 µM |
| FC(F)(F)c1ccc(CNc2ccc(Cc3c[nH]c4ncccc34)cn2)cc1 [PLX647, reference compound] |  |  |  |  | 0.068 µM |  |
| COc1cccc2c1C(=O)c1c(O)c3c(c(O)c1C2=O)C[C@@](O)(C(=O)CO)C[C@@H]3O[C@H]1C[C@H](N)[C@H](O)[C@H](C)O1 [Adriamycin, reference compound] | 2.7 ± 0.71 µM | 1.5 ± 0.19 µM | 4.22 ± 0.44 µM |  |  | 4.14 ± 0.53 µM |
| COc1cc(O)ccc1/C=C/C(=O)c1ccc(OCc2nnc(Nc3c(Cl)cccc3Cl)o2)cc1 [Compound T18, (E)-1-{4-{{5-[(2,6-Dichlorophenyl)amino]-1,3,4-oxadiazol-2-yl}methoxy}phenyl}-3-(4-hydroxy-2-methoxy-phenyl)propenone] | > 30 µM | > 30 µM | > 30 µM | 172.3 to 174.6 °C |  | > 30 µM |
| COc1cc(O)ccc1/C=C/C(=O)c1ccc(OCc2nnc(Nc3ccc(C)cc3)o2)cc1 [Compound T1, (E)-3-(4-Hydroxy-2-methoxyphenyl)-1-{4-{[5-(p-tolylamino)-1,3,4-oxadiazol-2-yl]methoxy}phenyl}propen-one] | 7.1 ± 0.45 µM | 4.85 ± 0.32 µM | 22.05 ± 0.12 µM | 186.1 to 189.4 °C |  | 9.55 ± 0.17 µM |
| COc1cc(O)ccc1/C=C/C(=O)c1ccc(OCc2nnc(Nc3ccc(F)cc3)o2)cc1 [Compound T6, (E)-1-{4-{{5-[(4-Fluorophenyl)amino]-1,3,4-oxadiazol-2-yl}methoxy}phenyl}-3-(4-hydroxy-2-methoxyphen-yl)propenone] | > 30 µM | 4.39 ± 0.71 µM | > 30 µM | 211.8 to 214.1 °C |  | 16.9 ± 1.58 µM |
| COc1cc(O)ccc1/C=C/C(=O)c1ccc(OCc2nnc(Nc3ccc(Cl)cc3)o2)cc1 [Compound T7, (E)-1-{4-{{5-[(4-Chlorophenyl)amino]-1,3,4-oxadiazol-2-yl}methoxy}phenyl}-3-(4-hydroxy-2-methoxyphen-yl)propenone] | > 30 µM | 2.08 ± 0.54 µM | > 30 µM | 211.4 to 212.1 °C |  | 17.5 ± 1.77 µM |

Now from value to molecule, other results behind:

| IC50 [1] | IC50 [2] | IC50 [4] | melting point | IC50 [5] | Compound | IC50 [3] |
| --- | --- | --- | --- | --- | --- | --- |
| 5.16 ± 0.11 µM | 2.47 ± 0.56 µM | 15.5 ± 1.09 µM | 200.1 to 200.4 °C | 0.237 µM | CCOc1ccc(Nc2nnc(COc3ccc(C(=O)/C=C/c4ccc(O)cc4OC)cc3)o2)cc1 [Compound T3] | 17.2 ± 0.67 µM |
| > 30 µM | > 30 µM | > 30 µM | 192.9 to 194.1 °C |  | COc1cc(O)ccc1/C=C/C(=O)c1ccc(OCc2nnc(Nc3ccc(C)cc3C)o2)cc1 [Compound T15, (E)-1-{4-{{5-[(2,4-Dimethylphenyl)amino]-1,3,4-oxadiazol-2-yl}methoxy}phenyl}-3-(4-hydroxy-2-methoxy-phenyl)propenone] | > 30 µM |
| > 30 µM | 10 ± 0.93 µM | > 30 µM | 206.5 to 209.2 °C |  | COc1cc(O)ccc1/C=C/C(=O)c1ccc(OCc2nnc(Nc3ccccc3C)o2)cc1 [Compound T9] | > 30 µM |
| > 30 µM | > 30 µM | > 30 µM | 223.4 to 223.9 °C |  | COc1cc(O)ccc1/C=C/C(=O)c1ccc(OCc2nnc(Nc3ccc(F)cc3F)o2)cc1 [Compound T16, (E)-1-{4-{{5-[(2,4-Difluorophenyl)amino]-1,3,4-oxadiazol-2-yl}methoxy}phenyl}-3-(4-hydroxy-2-methoxy-phenyl)propenone] | > 30 µM |
| 13.9 ± 0.67 µM | 10.2 ± 0.87 µM | > 30 µM | 191.3 to 191.8 °C |  | COc1cc(O)ccc1/C=C/C(=O)c1ccc(OCc2nnc(Nc3ccccc3Cl)o2)cc1 [Compound T13, (E)-1-{4-{{5-[(2-Chlorophenyl)amino]-1,3,4-oxadiazol-2-yl}methoxy}phenyl}-3-(4-hydroxy-2-methoxyphen-yl)propenone] | > 30 µM |
| 12.8 ± 0.98 µM | 6.14 ± 1.45 µM | > 30 µM | 186.2 to 187.4 °C |  | COc1cc(O)ccc1/C=C/C(=O)c1ccc(OCc2nnc(Nc3ccccc3F)o2)cc1 [Compound T12, (E)-1-{4-{{5-[(2-Fluorophenyl)amino]-1,3,4-oxadiazol-2-yl}methoxy}phenyl}-3-(4-hydroxy-2-methoxyphen-yl)propenone] | > 30 µM |
| > 30 µM | > 30 µM | > 30 µM | 175.4 to 188.3 °C |  | CCOc1ccccc1Nc1nnc(COc2ccc(C(=O)/C=C/c3ccc(O)cc3OC)cc2)o1 [Compound T11, (E)-1-{4-{{5-[(2-Ethoxyphenyl)amino]-1,3,4-oxadiazol-2-yl}methoxy}phenyl}-3-(4-hydroxy-2-methoxyphe-nyl)propenone] | > 30 µM |
| > 30 µM | 7.62 ± 1.23 µM | > 30 µM | 187.6 to 190.8 °C |  | COc1cc(O)ccc1/C=C/C(=O)c1ccc(OCc2nnc(Nc3cccc(C)c3)o2)cc1 [Compound T10, (E)-3-(4-Hydroxy-2-methoxyphenyl)-1-{4-{[5-(m-tolylamino)-1,3,4-oxadiazol-2-yl]methoxy}phenyl}propen-one] | > 30 µM |
